In patent US8216587B1, “Method of vaccination” (PCI Biotech AS, priority 1999, dated 2012):

What was measured:
BL2-G-E6 cells = assay: Photochemically induced relocalisation of fluorescein-labelled ras peptide (fluorescence microscopy); type: cell-based, mouse; details: peptide plus AlPcS2a; after a 4-min exposure to red light
Protocol: Two different light sources were used for treatment of the cells, both consisting of a bank of 4 fluorescent tubes.
The cells were analysed by fluorescence microscopy as described in Berg. K., et al., Biochem. Biophys. Acta., 1370: 317-324, 1998. For analysis of fluorescein-labelled molecules the microscope was equipped with a 450-490 nm excitation filter, a 510 nm dichroic beam splitter and a 510-540 nm band pass emission filter.
BL2-G-E6 cells were incubated with 30 μg/ml of the fluorescein-labelled p21^ras-derived peptide for 18 hours followed by 20 μg/ml AlPcS2a for 18 hours and 1 hour in drug-free medium before exposure to red light.
To evaluate PCI for cytosolic delivery of cancer-specific peptides, a fluorescein-labelled p21^ras peptide encompassing residues 5-21 and containing a Val^12 mutation (G12V) was used (Gjertsen, M. K., et al., Int. J. Cancer, 72: 784-790, 1997). […] Similar effects were not observed in cells exposed to the fluorescein-labelled ras peptide and light only (data not shown).

THX cells = assay: Photochemically induced GFP expression after pEGFP-N1-pLys transfection (flow cytometry); type: cell-based; details: for fraction of the cells positive for GFP: AlPcS2a plus pEGFP-N1-pLys complex; for change in GFP expression with photosensitiser and light: pEGFP-N1-pLys complex plus photosensitiser and light, FIG. 5a, 5b
Protocol: Plasmid-pLys complexes (charge ratio, 1.7) were prepared by gently mixing 5 μg plasmid (pEGFP-N1; Clontech Laboratories, Inc., Palo Alto, Calif.) in 75 μl of HBS with 5.3 μg pLys (MW 20700; Sigma, St. Louis, Mo.) in 75 μl of HBS. The solutions were incubated for 30 min at room temperature, diluted with culture medium and added to the cells.
THX cells were incubated with 20 μg/ml AlPcS2a for 18 hours at 37° C., washed and incubated in sensitizer-free medium for 3 hours before incubation with plasmid-pLys complexes for 2 hours. The pEGFP-N1/pLys treated THX cells were washed once and incubated for 2 hours in culture medium without additions before exposure to light. The cells were incubated at 37° C. for 2 days, subcultured and further incubated for an additional 5 days before analysis of GFP expression by flow cytometry.
The cells were trypsinised, centrifuged, resuspended in 400 μl of culture medium and filtered through a 50 μm mesh nylon filter. The cells were then analysed in a FACStar plus flow cytometer (Becton Dickinson). Green Fluorescent Protein (GFP) was measured through a 510-530 nm filter after excitation with an argon laser (200 mW) tuned on 488 nm. AlPcS2a was measured through a 650 nm longpass filter after excitation with a krypton laser (50 mW) tuned on 351-356 nm. Cell doublets were discriminated from single cells by gating on the pulse width of the GFP fluorescence signal. The data were analysed with PC Lysys II software (Becton Dickinson).
The expression of GFP was analysed by flow cytometry (FIGS. 5a and b) and fluorescence microscopy (data not shown). […] The fraction of the cells that was positive for this reporter molecule increased from 1% at no light treatment to 50% after a 5-min light exposure. […] Consequently, in a light-directed manner, PCI can substantially increase the efficiency of transfection of a functional gene to THX cells.

NHIK 3025 cells = assay: PCI-induced release of endocytosed HRP into the cytosol; type: cell-based, human; details: 3.2 μg/ml TPPS2a and 1 mg/ml HRP for 18 h, then light; FIG. 4
Protocol: In this experiment NHIK 3025 cells (carcinoma cells in situ from human cervix) were treated with the photosensitising agent TPPS2a (3.2 μg/ml) and 1 mg/ml HRP for 18 hours. HRP activity was measured according to the procedure described in Steinman et al., J. Cell Biol., 68: 665-687, 1976. Cytosol was separated from cytosol-free cell corpses by electropermeabilisation and a density centrifugation technique (Berg et al., Int. J. Cancer 59: 814-822, 1994).

| Molecule | localisation after light exposure (BL2-G-E6 cells) | fraction of the cells positive for GFP (THX cells; after a 5-min light exposure) [%] | fraction of the cells positive for GFP (THX cells; no light treatment) [%] | change in GFP expression with photosensitiser and light (THX cells) | fraction of endocytosed HRP released into the cytosol (NHIK 3025 cells) [%] |
| --- | --- | --- | --- | --- | --- |
| aluminum phthalocyanine with 2 sulfonate groups on adjacent phenyl rings [AlPcS2a] | located diffusely in the cytoplasm | 50 | 1 | strong increase |  |
| Horseradish Peroxidase [HRP] |  |  |  |  | > 60 |
| Oc1cccc(-c2c3nc(c(-c4cccc(O)c4)c4ccc([nH]4)c(-c4cccc(O)c4)c4nc(c(-c5cccc(O)c5)c5ccc2[nH]5)C=C4)C=C3)c1 [3-THPP] |  |  |  | only a minor increase |  |
